Reference: patent US20220142897A1, “Formulation and Use Thereof in the Treatment of Keratosis Pilaris” (priority 2020, published 2022)

Experiments:
sebaceous glands [1] = conditions: cited from earlier work
sebaceous glands [2] = experiment: Stimulation of sebaceous glands / sebum production by topical DHEA; type: in vivo, human
From the text: The main component of the current invention is DHEA, a steroid hormone. Without being bound by theory, it is hypothesized that DHEA in the current invention serves to simulate the production of sebaceous glands. […] In contrast, the upper limits of DHEA in the current invention can be as high as 100%.
Daily applications of DHEA can increase the output of sebaceous glands by up to 60% within 3 months. This makes DHEA a particularly viable and effective treatment for increasing sebum output in those with KP. Patients with KP typically have widespread sebaceous gland atrophy in the affected areas of the skin, causing downstream symptoms of skin dryness, inflammation, and could potentially be the root cause of the keratin papules that develop. DHEA also is suspected to help modulate and regulate keratinocyte proliferation. It is suspected that by regulating keratinocytes in the follicular channel, the rate at which keratin blockages forms is reduced.

Structure (SMILES) | increase of the output of sebaceous glands (sebaceous glands [1]; daily applications, within 3 months) | safety of continuous topical application (sebaceous glands [1]; low concentrations to avoid systemic circulation) | sebum production as observed by softness and oiliness (sebaceous glands [2]; 2% DHEA) | sebum production as observed by softness and oiliness (sebaceous glands [2]; DHEA reduced to approximately 0.1%) | stimulation of the sebaceous glands (sebaceous glands [2]; concentrations of DHEA at less than 0.1%, clinical studies) | potency to stimulate sebaceous gland to produce sebocytes (sebaceous glands [1]; relative to DHEA)
C[C@]12CC[C@H](O)CC1=CC[C@@H]1[C@@H]2CC[C@]2(C)C(=O)CC[C@@H]12 [DHEA, dehydroepiandrosterone] | up to 60% | safe | increase in sebum production | Such phenotypes are observed | ineffective | 
C[C@]12CCC(=O)C[C@@H]1CC[C@@H]1[C@@H]2CC[C@]2(C)[C@@H](O)CC[C@@H]12 [DHT, dihydrotestosterone] |  |  |  |  |  | more potent than DHEA
